In PubChem BioAssay (NCI):
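Tested at 5 concentrations; 48 h exposure; 96-well plates; endpoints linearly interpolated, else capped at highest concentration. GI50 = concentration required for 50% inhibition of growth. TGI is the concentration that stops growth completely.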

tested on: KM12 colon; assay: growth of human tumour cells (NCI), 48 h

With Cc1[nH][nH]c(=O)c1C=Nc1ccc(-c2nc3ccccc3[nH]2)cc1 the GI50 was 18.3 µM.

Going from Cc1[nH][nH]c(=O)c1C=Nc1ccc(-c2nc3ccccc3[nH]2)cc1 to O=c1c(-c2ccccc2)c(SCCCN2CCN(c3cccc(Cl)c3)CC2)n(-c2ccccc2)c(=S)n1-c1ccccc1, the TGI rises from 89.7 µM to > 100 µM.

tested on: M14 melanoma; assay: growth of human tumour cells (NCI), 48 h

Going from CCN1C(=O)N(CC)C2C1NC(=S)N2/N=C/C=C/c1cccs1 (stereo not given) to Cc1[nH][nH]c(=O)c1C=Nc1ccc(-c2nc3ccccc3[nH]2)cc1, the GI50 rises from 0.241 µM to 30.6 µM (130-fold).

Work on Cc1ccc(N(CSc2ccc(Cl)cc2)CSc2ccc(Cl)cc2)cc1 yielded a GI50 of 1.48 µM.

Compared with CCN1C(=O)N(CC)C2C1NC(=S)N2/N=C/C=C/c1cccs1 (stereo not given), Cc1[nH][nH]c(=O)c1C=Nc1ccc(-c2nc3ccccc3[nH]2)cc1 is 2.9-fold higher in TGI: 17.6 µM for the first, 50.9 µM for the second.

Molecule Cc1ccc(N(CSc2ccc(Cl)cc2)CSc2ccc(Cl)cc2)cc1 has a TGI of 4.45 µM.

tested on: NCI-H522 lung; assay: growth of human tumour cells (NCI), 48 h

First: CCN1C(=O)N(CC)C2C1NC(=S)N2/N=C/C=C/c1cccs1 (stereo not given)
Second: Cc1[nH][nH]c(=O)c1C=Nc1ccc(-c2nc3ccccc3[nH]2)cc1
The GI50 of the first is 150-fold lower: 0.214 µM for the first, 31.1 µM for the second.

For Cc1ccc(N(CSc2ccc(Cl)cc2)CSc2ccc(Cl)cc2)cc1, the GI50 was 1.49 µM.

Going from CCN1C(=O)N(CC)C2C1NC(=S)N2/N=C/C=C/c1cccs1 (stereo not given) to O=c1c(-c2ccccc2)c(SCCCN2CCN(c3cccc(Cl)c3)CC2)n(-c2ccccc2)c(=S)n1-c1ccccc1, the TGI rises from 1.69 µM to > 100 µM.

Compared with Cc1ccc(N(CSc2ccc(Cl)cc2)CSc2ccc(Cl)cc2)cc1, Cc1[nH][nH]c(=O)c1C=Nc1ccc(-c2nc3ccccc3[nH]2)cc1 is 25-fold higher in TGI: 3.18 µM for the first, 78.1 µM for the second.

tested on: LOX IMVI melanoma; assay: growth of human tumour cells (NCI), 48 h

Compared with CCN1C(=O)N(CC)C2C1NC(=S)N2/N=C/C=C/c1cccs1 (stereo not given), Cc1[nH][nH]c(=O)c1C=Nc1ccc(-c2nc3ccccc3[nH]2)cc1 is 31-fold higher in GI50: 0.55 µM for the first, 16.8 µM for the second.

Cc1ccc(N(CSc2ccc(Cl)cc2)CSc2ccc(Cl)cc2)cc1 gave a GI50 of 0.189 µM.

CCN1C(=O)N(CC)C2C1NC(=S)N2/N=C/C=C/c1cccs1 (stereo not given) and O=c1c(-c2ccccc2)c(SCCCN2CCN(c3cccc(Cl)c3)CC2)n(-c2ccccc2)c(=S)n1-c1ccccc1 cannot be ordered by TGI: > 100 µM for the first, > 100 µM for the second.

Compared with Cc1ccc(N(CSc2ccc(Cl)cc2)CSc2ccc(Cl)cc2)cc1, Cc1[nH][nH]c(=O)c1C=Nc1ccc(-c2nc3ccccc3[nH]2)cc1 is 44-fold higher in TGI: 0.694 µM for the first, 30.5 µM for the second.

tested on: SN12C renal; assay: growth of human tumour cells (NCI), 48 h

Compared with CCN1C(=O)N(CC)C2C1NC(=S)N2/N=C/C=C/c1cccs1 (stereo not given), Cc1[nH][nH]c(=O)c1C=Nc1ccc(-c2nc3ccccc3[nH]2)cc1 is 59-fold higher in GI50: 0.62 µM for the first, 36.7 µM for the second.

With Cc1ccc(N(CSc2ccc(Cl)cc2)CSc2ccc(Cl)cc2)cc1 the GI50 was 0.501 µM.

Compared with CCN1C(=O)N(CC)C2C1NC(=S)N2/N=C/C=C/c1cccs1 (stereo not given), Cc1[nH][nH]c(=O)c1C=Nc1ccc(-c2nc3ccccc3[nH]2)cc1 is lower in TGI: > 100 µM for the first, 96.5 µM for the second.

For Cc1ccc(N(CSc2ccc(Cl)cc2)CSc2ccc(Cl)cc2)cc1, the TGI was 14.5 µM.

tested on: PC-3 prostate; assay: growth of human tumour cells (NCI), 48 h

First: CCN1C(=O)N(CC)C2C1NC(=S)N2/N=C/C=C/c1cccs1 (stereo not given)
Second: Cc1[nH][nH]c(=O)c1C=Nc1ccc(-c2nc3ccccc3[nH]2)cc1
The GI50 of the first is 230-fold lower: 0.344 µM for the first, 80.8 µM for the second.

Cc1ccc(N(CSc2ccc(Cl)cc2)CSc2ccc(Cl)cc2)cc1 gave a GI50 of 0.787 µM.

CCN1C(=O)N(CC)C2C1NC(=S)N2/N=C/C=C/c1cccs1 (stereo not given) and O=c1c(-c2ccccc2)c(SCCCN2CCN(c3cccc(Cl)c3)CC2)n(-c2ccccc2)c(=S)n1-c1ccccc1 cannot be ordered by TGI: > 100 µM for the first, > 100 µM for the second.

First: Cc1ccc(N(CSc2ccc(Cl)cc2)CSc2ccc(Cl)cc2)cc1
Second: Cc1[nH][nH]c(=O)c1C=Nc1ccc(-c2nc3ccccc3[nH]2)cc1
The TGI of the first is lower: 13.2 µM for the first, > 100 µM for the second.

tested on: OVCAR-3 ovarian; assay: growth of human tumour cells (NCI), 48 h

Going from CCN1C(=O)N(CC)C2C1NC(=S)N2/N=C/C=C/c1cccs1 (stereo not given) to Cc1[nH][nH]c(=O)c1C=Nc1ccc(-c2nc3ccccc3[nH]2)cc1, the GI50 rises from 0.241 µM to 14.9 µM (62-fold).

Cc1ccc(N(CSc2ccc(Cl)cc2)CSc2ccc(Cl)cc2)cc1 gave a GI50 of 2.75 µM.

Going from CCN1C(=O)N(CC)C2C1NC(=S)N2/N=C/C=C/c1cccs1 (stereo not given) to O=c1c(-c2ccccc2)c(SCCCN2CCN(c3cccc(Cl)c3)CC2)n(-c2ccccc2)c(=S)n1-c1ccccc1, the TGI rises from 0.715 µM to > 100 µM.

Compared with Cc1ccc(N(CSc2ccc(Cl)cc2)CSc2ccc(Cl)cc2)cc1, Cc1[nH][nH]c(=O)c1C=Nc1ccc(-c2nc3ccccc3[nH]2)cc1 is 3.1-fold higher in TGI: 11.5 µM for the first, 36 µM for the second.

tested on: NCI-H23 lung; assay: growth of human tumour cells (NCI), 48 h

First: CCN1C(=O)N(CC)C2C1NC(=S)N2/N=C/C=C/c1cccs1 (stereo not given)
Second: Cc1ccc(N(CSc2ccc(Cl)cc2)CSc2ccc(Cl)cc2)cc1
The GI50 of the first is 3.4-fold lower: 0.658 µM for the first, 2.27 µM for the second.

CCN1C(=O)N(CC)C2C1NC(=S)N2/N=C/C=C/c1cccs1 (stereo not given) and O=c1c(-c2ccccc2)c(SCCCN2CCN(c3cccc(Cl)c3)CC2)n(-c2ccccc2)c(=S)n1-c1ccccc1 cannot be ordered by TGI: > 100 µM for the first, > 100 µM for the second.

Cc1ccc(N(CSc2ccc(Cl)cc2)CSc2ccc(Cl)cc2)cc1 showed a TGI of 10.5 µM.

tested on: TK-10 renal; assay: growth of human tumour cells (NCI), 48 h

CCN1C(=O)N(CC)C2C1NC(=S)N2/N=C/C=C/c1cccs1 (stereo not given) and Cc1[nH][nH]c(=O)c1C=Nc1ccc(-c2nc3ccccc3[nH]2)cc1 cannot be ordered by GI50: > 47.5 µM for the first, > 100 µM for the second.

With Cc1ccc(N(CSc2ccc(Cl)cc2)CSc2ccc(Cl)cc2)cc1 the GI50 was 4.88 µM.

CCN1C(=O)N(CC)C2C1NC(=S)N2/N=C/C=C/c1cccs1 (stereo not given) and O=c1c(-c2ccccc2)c(SCCCN2CCN(c3cccc(Cl)c3)CC2)n(-c2ccccc2)c(=S)n1-c1ccccc1 cannot be ordered by TGI: > 100 µM for the first, > 100 µM for the second.

Cc1ccc(N(CSc2ccc(Cl)cc2)CSc2ccc(Cl)cc2)cc1 and Cc1[nH][nH]c(=O)c1C=Nc1ccc(-c2nc3ccccc3[nH]2)cc1 cannot be ordered by TGI: > 100 µM for the first, > 100 µM for the second.

tested on: CAKI-1 renal; assay: growth of human tumour cells (NCI), 48 h

Going from CCN1C(=O)N(CC)C2C1NC(=S)N2/N=C/C=C/c1cccs1 (stereo not given) to Cc1[nH][nH]c(=O)c1C=Nc1ccc(-c2nc3ccccc3[nH]2)cc1, the GI50 rises from 0.248 µM to 19.1 µM (77-fold).

Work on Cc1ccc(N(CSc2ccc(Cl)cc2)CSc2ccc(Cl)cc2)cc1 yielded a GI50 of 0.829 µM.

CCN1C(=O)N(CC)C2C1NC(=S)N2/N=C/C=C/c1cccs1 (stereo not given) and O=c1c(-c2ccccc2)c(SCCCN2CCN(c3cccc(Cl)c3)CC2)n(-c2ccccc2)c(=S)n1-c1ccccc1 cannot be ordered by TGI: > 100 µM for the first, > 100 µM for the second.

Compared with Cc1ccc(N(CSc2ccc(Cl)cc2)CSc2ccc(Cl)cc2)cc1, Cc1[nH][nH]c(=O)c1C=Nc1ccc(-c2nc3ccccc3[nH]2)cc1 is 6.3-fold higher in TGI: 8.16 µM for the first, 51.2 µM for the second.

tested on: OVCAR-5 ovarian; assay: growth of human tumour cells (NCI), 48 h

Going from CCN1C(=O)N(CC)C2C1NC(=S)N2/N=C/C=C/c1cccs1 (stereo not given) to Cc1[nH][nH]c(=O)c1C=Nc1ccc(-c2nc3ccccc3[nH]2)cc1, the GI50 rises from 0.544 µM to 46 µM (85-fold).

Cc1ccc(N(CSc2ccc(Cl)cc2)CSc2ccc(Cl)cc2)cc1 gave a GI50 of 1.74 µM.

CCN1C(=O)N(CC)C2C1NC(=S)N2/N=C/C=C/c1cccs1 (stereo not given) and O=c1c(-c2ccccc2)c(SCCCN2CCN(c3cccc(Cl)c3)CC2)n(-c2ccccc2)c(=S)n1-c1ccccc1 cannot be ordered by TGI: > 100 µM for the first, > 100 µM for the second.

First: Cc1ccc(N(CSc2ccc(Cl)cc2)CSc2ccc(Cl)cc2)cc1
Second: Cc1[nH][nH]c(=O)c1C=Nc1ccc(-c2nc3ccccc3[nH]2)cc1
The TGI of the first is lower: 13 µM for the first, > 100 µM for the second.

tested on: IGROV1 ovarian; assay: growth of human tumour cells (NCI), 48 h

Going from CCN1C(=O)N(CC)C2C1NC(=S)N2/N=C/C=C/c1cccs1 (stereo not given) to Cc1[nH][nH]c(=O)c1C=Nc1ccc(-c2nc3ccccc3[nH]2)cc1, the GI50 rises from 0.569 µM to 24.6 µM (43-fold).

In the case of Cc1ccc(N(CSc2ccc(Cl)cc2)CSc2ccc(Cl)cc2)cc1, the GI50 is reported as 0.481 µM.

CCN1C(=O)N(CC)C2C1NC(=S)N2/N=C/C=C/c1cccs1 (stereo not given) and O=c1c(-c2ccccc2)c(SCCCN2CCN(c3cccc(Cl)c3)CC2)n(-c2ccccc2)c(=S)n1-c1ccccc1 cannot be ordered by TGI: > 100 µM for the first, > 100 µM for the second.

Going from Cc1ccc(N(CSc2ccc(Cl)cc2)CSc2ccc(Cl)cc2)cc1 to Cc1[nH][nH]c(=O)c1C=Nc1ccc(-c2nc3ccccc3[nH]2)cc1, the TGI rises from 5.87 µM to > 100 µM.

tested on: HOP-62 NSCLC; assay: growth of human tumour cells (NCI), 48 h

First: CCN1C(=O)N(CC)C2C1NC(=S)N2/N=C/C=C/c1cccs1 (stereo not given)
Second: Cc1ccc(N(CSc2ccc(Cl)cc2)CSc2ccc(Cl)cc2)cc1
The GI50 of the first is 6.5-fold lower: 0.414 µM for the first, 2.71 µM for the second.

CCN1C(=O)N(CC)C2C1NC(=S)N2/N=C/C=C/c1cccs1 (stereo not given) and O=c1c(-c2ccccc2)c(SCCCN2CCN(c3cccc(Cl)c3)CC2)n(-c2ccccc2)c(=S)n1-c1ccccc1 cannot be ordered by TGI: > 100 µM for the first, > 100 µM for the second.

Work on Cc1ccc(N(CSc2ccc(Cl)cc2)CSc2ccc(Cl)cc2)cc1 yielded a TGI of 16.4 µM.

tested on: SK-MEL-5 melanoma; assay: growth of human tumour cells (NCI), 48 h

Going from CCN1C(=O)N(CC)C2C1NC(=S)N2/N=C/C=C/c1cccs1 (stereo not given) to Cc1[nH][nH]c(=O)c1C=Nc1ccc(-c2nc3ccccc3[nH]2)cc1, the GI50 rises from 0.274 µM to 18 µM (66-fold).

Cc1ccc(N(CSc2ccc(Cl)cc2)CSc2ccc(Cl)cc2)cc1 was tested, and the GI50 was 1.18 µM.

First: CCN1C(=O)N(CC)C2C1NC(=S)N2/N=C/C=C/c1cccs1 (stereo not given)
Second: O=c1c(-c2ccccc2)c(SCCCN2CCN(c3cccc(Cl)c3)CC2)n(-c2ccccc2)c(=S)n1-c1ccccc1
The TGI of the first is lower: 5.93 µM for the first, > 100 µM for the second.

Compared with Cc1ccc(N(CSc2ccc(Cl)cc2)CSc2ccc(Cl)cc2)cc1, Cc1[nH][nH]c(=O)c1C=Nc1ccc(-c2nc3ccccc3[nH]2)cc1 is 14-fold higher in TGI: 2.5 µM for the first, 36.2 µM for the second.

tested on: RXF 393 renal; assay: growth of human tumour cells (NCI), 48 h

Molecule CCN1C(=O)N(CC)C2C1NC(=S)N2/N=C/C=C/c1cccs1 (stereo not given) has a GI50 of 0.182 µM.

For CCN1C(=O)N(CC)C2C1NC(=S)N2/N=C/C=C/c1cccs1 (stereo not given), the TGI was > 100 µM.
